The results in this text go back to article PMC5444705 (Oncotarget, 2017).

Read-outs that look alike come from different tables or passages of the source.

For one data set, the system named is HepG2 xenograft tumor. Briefly: Anti-tumor efficacy in HepG2 xenograft tumor mouse model. The class given is in vivo, Balb/C nude mice. Particulars: tail vein injection, 4 mg/kg (WCN-21), 25th day after injection. As to the method: Tumor volume and mouse body weights were recorded during drug administration period. The mice were sacrificed at 25th day after the injection and tumors were collected for histology examination.
For the efficacy study, 4 × 10^6 HepG2 cells were injected in the front armpit of the Balb/C nude mice. […] The tumor sizes were measured every other day and any death of the mice was recorded. […] TUNEL, Ki67 and hematoxylin and eosin (H&E) staining were performed by using the resected tumor tissue from mice for efficacy study. The tissue sections were examined and photographed with a microscope (Olympus SZX12, Japan) connected to a PC.

For a further data set, the system named is Hep3B cells. Kind of data set: MTT assay, Hep3B. Format: cell-based. The following applies: Homo sapiens. As to the method:
(§1) HepG2, Hep3B, Huh7 or L02 cells were seeded in 96-well plates at a density of 5 × 10^3 cells per well. […] After 24 and 48 h of co-incubation, used media were removed and cells were washed twice with PBS. Fresh medium containing 20 μl of MTT ([…]) was added in and cells were cultured for an additional 4 h at 37°C in a 5% CO2incubator. After that, media were removed and 200 μl of DMSO was added in. The optical density value was determined by the microplate reader (Multiskan MK3, Thermo Fisher Scientific, Atlanta, GA, USA) at 492 nm.
Background: Formazan colour is commonly taken as a measure of viable cells.

A further data set deals with HepG2 cells. Briefly: MTT assay, HepG2. The following applies: Homo sapiens. The class given is cell-based. As to the method: as §1
The conditions of data set [1]: mouse, in vivo, 4 mg/kg. As to the method: To determine the toxicity of WND and WNP, we collected tissues from the mice used in efficacy study for histological analysis. […] For the efficacy study, 4 × 10^6 HepG2 cells were injected in the front armpit of the Balb/C nude mice. […] The tumor sizes were measured every other day and any death of the mice was recorded. […] TUNEL, Ki67 and hematoxylin and eosin (H&E) staining were performed by using the resected tumor tissue from mice for efficacy study. The tissue sections were examined and photographed with a microscope (Olympus SZX12, Japan) connected to a PC.

The test system of the next data set is Huh7 cells. Briefly: MTT assay, Huh7. The class given is cell-based. The following applies: Homo sapiens. The method, then:
as §1

Another data set concerns L02 cells. Kind of data set: MTT assay, L02. The following applies: Homo sapiens. Format: cell-based. The method, then: as §1

In the case of `CC[C@@]1(O)C(=O)OCc2c1cc1n(c2=O)Cc2cc3c(CN(C)C)c(O)ccc3nc2-1` [Topotecan], the “Tumor size at 25th day” value in the data set with HepG2 xenograft tumor came to 837 mm^3. The IC50 (usually the concentration at which inhibition is half-maximal) in the data set on Hep3B cells (24 h) was found to be 462 ± 20 nM; in the data set on Hep3B cells (48 h) it was 112 ± 2.4 nM; in the data set on HepG2 cells (HepG2, 24 h), 1590 ± 20.6 nM; in the data set with HepG2 cells (HepG2, 48 h), 285 ± 9 nM; in the data set on Huh7 cells (Huh 7, 24 h), 500 ± 69 nM; in the data set with Huh7 cells (Huh 7, 48 h), 117 ± 48 nM. The IC50 is > 500 nM in the data set with L02 cells (L02, 24 or 48 h, time not specified, read-out: IC50 in L02 cells); > 500 nM with L02 cells (L02, 24 h, MTT, read-out: IC50); > 500 nM with L02 cells (L02, 48 h, MTT, read-out: IC50). The Body weight change entry in data set [1] was “significant body weight loss”. In data set [1], the “Histological analysis of hearts, livers, spleens, lungs and kidneys” value was “myocardial fiber fracture and cardiocytes necrosis in hearts, inflammatory infiltration in livers, atrophied white pulp in spleens and disorganization of renal corpuscles in kidneys”.
